Data taken from patent US7982047B2, “Derivatives of 1,3-diones having a herbicidal activity” (Isagro Ricerca S.r.l., priority 2003, dated 2011).
Blank lines part the entries; values can stand above or below the compound they belong to.

What was measured:
[1] = test system: Portulaca oleracea; assay: Post-emergence herbicidal activity; format: in vivo; conditions: 500 g/ha, evaluated fifteen days after the treatment, damage vs blank
Description: (§1) Determination of the Herbicidal Activity and Phyto-Toxicity in Post-emergence The herbicidal activity of the compounds of the invention in post-emergence was evaluated according to the following operative procedures. The plant species of interest (weeds or crops) were sown in pots with an upper diameter of 10 cm, a height of 10 cm and containing sandy soil. 10 pots were used for each plant species. Water was added to each pot in such a quantity as to germinate the seeds. The pots were divided into two groups, each containing 5 pots for each weed or crop. Fifteen days after sowing (ten, in the case of wheat), when the weeds and crops, according to the species, were 10-15 cm high, the first set of pots was treated with a hydro-acetonic dispersion containing acetone at 10% in volume, the product under evaluation at the desired concentration and Tween 20 at 0.5%. The second set was treated with a hydro-acetonic solution only, containing acetone at 10% in volume and Tween 20 at 0.5%, and was used as comparison (blank). All pots were kept under observation in a conditioned environment under the following conditions: • temperature: 24° C.; • relative humidity: 60%; • photo-period: 16 hours; • light intensity: 10000 lux. The pots were uniformly watered every other day so as to ensure a humidity degree sufficient for a good development of the plants. The herbicidal activity was evaluated fifteen days after the treatment, on the basis of the following values which refer to the percentage of damage tested on the treated plants with respect to the non-treated plants (blank): [table]

[2] = test system: Solanum nigrum; assay: Post-emergence herbicidal activity; format: in vivo; conditions: 500 g/ha, evaluated fifteen days after the treatment, damage vs blank
Description: as §1

[3] = test system: Galium aparine; assay: Post-emergence herbicidal activity; format: in vivo; conditions: 500 g/ha, evaluated fifteen days after the treatment, damage vs blank
Description: as §1

[4] = test system: Abutilon theofrasti; assay: Post-emergence herbicidal activity; format: in vivo; conditions: 500 g/ha, evaluated fifteen days after the treatment, damage vs blank
Description: as §1

[5] = test system: Chenopodium album; assay: Post-emergence herbicidal activity; format: in vivo; conditions: 500 g/ha, evaluated fifteen days after the treatment, damage vs blank
Description: as §1

[6] = test system: Stellaria media; assay: Post-emergence herbicidal activity; format: in vivo; conditions: 500 g/ha, evaluated fifteen days after the treatment, damage vs blank
Description: as §1

[7] = test system: Portulaca oleracea; assay: Pre-emergence herbicidal activity; format: in vivo; conditions: 500 g/ha, evaluated fifteen days after the treatment, damage vs blank
Description: (§2) Determination of the Herbicidal Activity and Phyto-Toxicity in Pre-Emergence The herbicidal activity of the compounds of the invention in pre-emergence was evaluated according to the following operative procedures. The plant species of interest (weeds or crops) were sown in pots with an upper diameter of 10 cm, a height of 10 cm and containing sandy soil. 10 pots were used for each plant species. Water was added to each pot in such a quantity as to germinate the seeds. The pots were divided into two groups, each containing 5 pots for each weed or crop. After one day from the sowing, the first set of pots was treated with a hydro-acetonic dispersion containing acetone at 10% in volume, the product under evaluation at the desired concentration and Tween 20 at 0.5%. The second set was treated with a hydro-acetonic solution only, containing acetone at 10% in volume and Tween 20 at 0.5%, and was used as comparison (blank). All pots were kept under observation in a conditioned environment under the following conditions: • temperature: 24° C.; • relative humidity: 60%; • photoperiod: 16 hours; • light intensity: 10000 lux. The pots were uniformly watered in order to ensure a sufficient humidity degree for a good development of the plants. Fifteen days after the treatment, the herbicidal activity was evaluated on the basis of the following values, which refer to the damage percentage tested on the treated plants, with respect to the non-treated plants (blank): [table]

[8] = test system: Solanum nigrum; assay: Pre-emergence herbicidal activity; format: in vivo; conditions: 500 g/ha, evaluated fifteen days after the treatment, damage vs blank
Description: as §2

[9] = test system: Galium aparine; assay: Pre-emergence herbicidal activity; format: in vivo; conditions: 500 g/ha, evaluated fifteen days after the treatment, damage vs blank
Description: as §2

[10] = test system: Ipomea purpurea; assay: Pre-emergence herbicidal activity; format: in vivo; conditions: 500 g/ha, evaluated fifteen days after the treatment, damage vs blank
Description: as §2

[11] = test system: Abutilon theofrasti; assay: Pre-emergence herbicidal activity; format: in vivo; conditions: 500 g/ha, evaluated fifteen days after the treatment, damage vs blank
Description: as §2

[12] = test system: Amaranthus retroflexus; assay: Pre-emergence herbicidal activity; format: in vivo; conditions: 500 g/ha, evaluated fifteen days after the treatment, damage vs blank
Description: as §2

[13] = test system: Chenopodium album; assay: Pre-emergence herbicidal activity; format: in vivo; conditions: 500 g/ha, evaluated fifteen days after the treatment, damage vs blank
Description: as §2

[14] = test system: Stellaria media; assay: Pre-emergence herbicidal activity; format: in vivo; conditions: 500 g/ha, evaluated fifteen days after the treatment, damage vs blank
Description: as §2

- melting point: 67 °C
Structure (SMILES): CS(=O)(=O)c1ccc(C(=O)C(C(=O)C2CC2)c2ccc([N+](=O)[O-])cc2[N+](=O)[O-])c(Cl)c1 (stereo not shown)

- melting point: 189 °C
Structure (SMILES): CS(=O)(=O)c1ccc(C(=O)C(C(=O)C(F)(F)F)c2ccccn2)c(Cl)c1 (stereo not shown) [Compound N-616, 1-[2-chloro-4-(methylsuiphonyl)phenyl]-2-(pyridin-2-yl)-4,4,4-trifluorobutane-1,3-dione]

Structure (SMILES): Cn1nnc(C(C(=O)c2ccc(S(C)(=O)=O)cc2Cl)C(=O)C2CC2)n1 (stereo not shown) [Compound N^o 6, 1-[2-chloro-4-(methylsulphonyl)phenyl]-3-cyclopropyl-2-(2-methyl-2H-tetrazol-5-yl)propane-1,3-dione]
- Post-emergence herbicidal activity PO [1]: 5 (91% damage - death of the plant.)
- Post-emergence herbicidal activity SN [2]: 5 (91% damage - death of the plant.)
- Post-emergence herbicidal activity GA [3]: 5 (91% damage - death of the plant.)
- Post-emergence herbicidal activity AT [4]: 5 (91% damage - death of the plant.)
- Post-emergence herbicidal activity CA [5]: 5 (91% damage - death of the plant.)
- Post-emergence herbicidal activity SM [6]: 5 (91% damage - death of the plant.)
- Pre-emergence herbicidal activity PO [7]: 5 (91% damage - death of the plant.)
- Pre-emergence herbicidal activity SN [8]: 5 (91% damage - death of the plant.)
- Pre-emergence herbicidal activity GA [9]: 5 (91% damage - death of the plant.)
- Pre-emergence herbicidal activity IP [10]: 5 (91% damage - death of the plant.)
- Pre-emergence herbicidal activity AT [11]: 5 (91% damage - death of the plant.)
- Pre-emergence herbicidal activity AR [12]: 5 (91% damage - death of the plant.)
- Pre-emergence herbicidal activity CA [13]: 5 (91% damage - death of the plant.)
- Pre-emergence herbicidal activity SM [14]: 5 (91% damage - death of the plant.)

Structure (SMILES): Cn1nnnc1C(C(=O)c1ccc(S(C)(=O)=O)cc1Cl)C(=O)C1CC1 (stereo not shown) [Compound N^o 7, 1-[2-chloro-4-(methylsulphonyl)phenyl]-3-cyclopropyl-2-(1-methyl-1H-tetrazol-5-yl)propane-1,3-dione]
- Pre-emergence herbicidal activity PO [7]: 5 (91% damage - death of the plant.)
- Pre-emergence herbicidal activity SN [8]: 5 (91% damage - death of the plant.)
- Pre-emergence herbicidal activity AT [11]: 5 (91% damage - death of the plant.)
- Pre-emergence herbicidal activity AR [12]: 5 (91% damage - death of the plant.)
- Pre-emergence herbicidal activity CA [13]: 5 (91% damage - death of the plant.)
- Pre-emergence herbicidal activity SM [14]: 5 (91% damage - death of the plant.)

Structure (SMILES): Cc1noc(C(C(=O)c2ccc(S(C)(=O)=O)cc2Cl)C(=O)C2CC2)n1 (stereo not shown) [Compound N^o 11, 1-[2-chloro-4-(methylsulphonyl)phenyl]-3-cyclopropyl-2-(3-methyl-1,2,4-oxadiazol-5-yl)propane-1,3-dione]
- Post-emergence herbicidal activity SN [2]: 5 (91% damage - death of the plant.)
- Post-emergence herbicidal activity AT [4]: 5 (91% damage - death of the plant.)
- Post-emergence herbicidal activity CA [5]: 5 (91% damage - death of the plant.)
- Pre-emergence herbicidal activity PO [7]: 5 (91% damage - death of the plant.)
- Pre-emergence herbicidal activity IP [10]: 5 (91% damage - death of the plant.)
- Pre-emergence herbicidal activity AT [11]: 5 (91% damage - death of the plant.)
- Pre-emergence herbicidal activity CA [13]: 5 (91% damage - death of the plant.)

- melting point: 162 °C
Structure (SMILES): CS(=O)(=O)c1ccc(C(=O)C(C(=O)C2CC2)n2cncn2)c(Cl)c1 (stereo not shown) [Compound No 460, 1-[2-chloro-4-(methylsulphonyl)phenyl]-3-cyclopropyl-2-(1,2,4-triazol-1-yl)propane-1,3-dione]

- melting point: 185 °C
Structure (SMILES): CS(=O)(=O)c1ccc(C(=O)C(C(=O)C2CC2)c2nnc(C(F)(F)F)s2)c(Cl)c1 (stereo not shown) [Compound No 2918, 1-[2-chloro-4-(thylsulphonyl)phenyl]-3-cyclopropyl-2-(5-trifluoromethyl-1,3,4-thiadiazol-2-yl)propane-1,3-dione]
